Assays:
Type in all cases: cell-based
[1] = tested on: methicillin-sensitive Staphylococcus aureus (MSSA); experiment: MIC, two-fold agar dilution (CLSI), clinical isolates; details: for Anti-bacterial activity (MIC), strain MSSA 15-3: clinical isolate MSSA 15-3; for Anti-bacterial activity (MIC), strain MSSA 15-4: clinical isolate MSSA 15-4; for Anti-bacterial activity (MIC), strain MSSA 15-5: clinical isolate MSSA 15-5; for Anti-bacterial activity (MIC), strain MSSA 15-6: clinical isolate MSSA 15-6
Outline: (§1)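 Test samples were assayed by the CLSI-recommended two-fold agar dilution method, and the minimum inhibitory concentration against each tested strain was determined.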

[2] = tested on: methicillin-resistant Staphylococcus epidermidis (MRSE); experiment: as above; details: for Anti-bacterial activity (MIC), strain MRSE 15-1: clinical isolate MRSE 15-1; for Anti-bacterial activity (MIC), strain MRSE 15-2: clinical isolate MRSE 15-2; for Anti-bacterial activity (MIC), strain MRSE 15-3: clinical isolate MRSE 15-3; for Anti-bacterial activity (MIC), strain MRSE 15-7: clinical isolate MRSE 15-7
Outline: as §1

[3] = tested on: Enterococcus faecium (EFM); experiment: as above; details: for Anti-bacterial activity (MIC), strain EFM 15-1: clinical isolate EFM 15-1; for Anti-bacterial activity (MIC), strain EFM 15-2: clinical isolate EFM 15-2; for Anti-bacterial activity (MIC), strain EFM 15-3: clinical isolate EFM 15-3; for Anti-bacterial activity (MIC), strain EFM 15-4: clinical isolate EFM 15-4; for Anti-bacterial activity (MIC), strain EFM 15-5: clinical isolate EFM 15-5; for Anti-bacterial activity (MIC), strain EFM 15-6: clinical isolate EFM 15-6
Outline: as §1

[4] = tested on: Moraxella catarrhalis (BCA); experiment: as above; details: for Anti-bacterial activity (MIC), strain BCA 14-1: clinical isolate BCA 14-1; for Anti-bacterial activity (MIC), strain BCA 14-4: clinical isolate BCA 14-4; for Anti-bacterial activity (MIC), strain BCA 14-5: clinical isolate BCA 14-5; for Anti-bacterial activity (MIC), strain BCA 14-6: clinical isolate BCA 14-6; for Anti-bacterial activity (MIC), strain BCA 14-7: clinical isolate BCA 14-7; for Anti-bacterial activity (MIC), strain BCA 14-8: clinical isolate BCA 14-8; for Anti-bacterial activity (MIC), strain BCA 14-10: clinical isolate BCA 14-10
Outline: as §1

[5] = tested on: Escherichia coli (including ESBLs, non-ESBLs); experiment: as above; details: for Anti-bacterial activity (MIC), strain ECO+ 15-1: clinical isolate ECO+ 15-1; for Anti-bacterial activity (MIC), strain ECO+ 15-2: clinical isolate ECO+ 15-2; for Anti-bacterial activity (MIC), strain ECO+ 15-3: clinical isolate ECO+ 15-3; for Anti-bacterial activity (MIC), strain ECO+ 15-4: clinical isolate ECO+ 15-4; for Anti-bacterial activity (MIC), strain ECO− 15-1: clinical isolate ECO− 15-1; for Anti-bacterial activity (MIC), strain ECO− 15-2: clinical isolate ECO− 15-2; for Anti-bacterial activity (MIC), strain ECO− 15-3: clinical isolate ECO− 15-3; for Anti-bacterial activity (MIC), strain ECO− 15-4: clinical isolate ECO− 15-4
Outline: as §1

[6] = tested on: methicillin-resistant Staphylococcus aureus (MRSA); experiment: as above; details: for Anti-bacterial activity (MIC), strain MRSA 15-1: clinical isolate MRSA 15-1; for Anti-bacterial activity (MIC), strain MRSA 15-2: clinical isolate MRSA 15-2; for Anti-bacterial activity (MIC), strain MRSA 15-3: clinical isolate MRSA 15-3; for Anti-bacterial activity (MIC), strain MRSA 15-4: clinical isolate MRSA 15-4
Outline: as §1

[7] = tested on: methicillin-sensitive Staphylococcus epidermidis (MSSE); experiment: as above; details: for Anti-bacterial activity (MIC), strain MSSE 15-4: clinical isolate MSSE 15-4; for Anti-bacterial activity (MIC), strain MSSE 15-5: clinical isolate MSSE 15-5; for Anti-bacterial activity (MIC), strain MSSE 15-6: clinical isolate MSSE 15-6
Outline: as §1

[8] = tested on: Streptococcus pneoumoniae (SPN); experiment: as above; details: for Anti-bacterial activity (MIC), strain SPN 16-2: clinical isolate SPN 16-2; for Anti-bacterial activity (MIC), strain SPN 16-4: clinical isolate SPN 16-4
Outline: as §1

[9] = tested on: Enterococcus faecalis (EFA); experiment: as above; details: for Anti-bacterial activity (MIC), strain EFA 15-1: clinical isolate EFA 15-1; for Anti-bacterial activity (MIC), strain EFA 15-2: clinical isolate EFA 15-2; for Anti-bacterial activity (MIC), strain EFA 15-3: clinical isolate EFA 15-3; for Anti-bacterial activity (MIC), strain EFA 15-4: clinical isolate EFA 15-4; for Anti-bacterial activity (MIC), strain EFA 15-5: clinical isolate EFA 15-5; for Anti-bacterial activity (MIC), strain EFA 15-6: clinical isolate EFA 15-6; for Anti-bacterial activity (MIC), strain EFA 15-9: clinical isolate EFA 15-9
Outline: as §1

[10] = tested on: HCT-116 colorectal cancer cell line; experiment: CCK-8 proliferation inhibition; details: concentration of 30 μM, 72 hours, CCK-8; for HCT116 inhibition rate/%: 30 µM
Outline: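 Growth inhibition is read by CCK-8 (1:10 dilution) after 72 h of compound exposure. HCT-116 cells grow in McCoy's 5A containing 10% newborn bovine serum at 2000 cells/well, with 1‰ DMSO as vehicle control.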

[11] = tested on: BEL-7402 liver cancer cell line; experiment: CCK-8 proliferation inhibition; details: concentration of 30 μM, 72 hours, 30 µM
Outline: (§2)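 Plating at 2000 cells/well, then incubation overnight at 37° C. Next, a range of compound concentrations for 72 hours (control 1‰ DMSO). Finally, medium decanted and CCK-8 diluted 1:10 added.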

[12] = tested on: A549 lung cancer cell line; experiment: CCK-8 proliferation inhibition; details: concentration of 30 μM; for inhibition at 30 µM: Homo sapiens, A549, 72 h; for Inhibition of proliferation, Lung cancer A549: 72 hours, 30 µM
Outline: as §2

[13] = tested on: MGC-803 gastric cancer cell line; experiment: CCK-8 proliferation inhibition; details: concentration of 30 μM; for Inhibition of proliferation, Gastric cancer MGC-803: 72 hours, 30 µM
Outline: as §2

O=C(C[C@@H](CC1CCCC1)C(=O)N1CC2(CC2)C[C@H]1C(=O)Nc1ccncn1)NO [Example 63]
Anti-bacterial activity (MIC), strain MSSA 15-3 [1]: 0.25 mg/L
Anti-bacterial activity (MIC), strain MSSA 15-4 [1]: 0.125 mg/L
Anti-bacterial activity (MIC), strain MSSA 15-5 [1]: 0.125 mg/L
Anti-bacterial activity (MIC), strain MSSA 15-6 [1]: 16 mg/L
Anti-bacterial activity (MIC), strain MRSE 15-1 [2]: 0.25 mg/L
Anti-bacterial activity (MIC), strain MRSE 15-2 [2]: 0.25 mg/L
Anti-bacterial activity (MIC), strain MRSE 15-3 [2]: 0.25 mg/L
Anti-bacterial activity (MIC), strain MRSE 15-7 [2]: 0.25 mg/L
Anti-bacterial activity (MIC), strain EFM 15-1 [3]: > 32 mg/L
Anti-bacterial activity (MIC), strain EFM 15-2 [3]: > 32 mg/L
Anti-bacterial activity (MIC), strain EFM 15-3 [3]: > 32 mg/L
Anti-bacterial activity (MIC), strain EFM 15-4 [3]: 0.5 mg/L
Anti-bacterial activity (MIC), strain EFM 15-5 [3]: 0.25 mg/L
Anti-bacterial activity (MIC), strain EFM 15-6 [3]: 0.25 mg/L
Anti-bacterial activity (MIC), strain BCA 14-1 [4]: 2 mg/L
Anti-bacterial activity (MIC), strain BCA 14-4 [4]: 2 mg/L
Anti-bacterial activity (MIC), strain BCA 14-5 [4]: 0.25 mg/L
Anti-bacterial activity (MIC), strain BCA 14-6 [4]: 0.25 mg/L
Anti-bacterial activity (MIC), strain BCA 14-7 [4]: 4 mg/L
Anti-bacterial activity (MIC), strain BCA 14-8 [4]: 0.5 mg/L
Anti-bacterial activity (MIC), strain BCA 14-10 [4]: 0.5 mg/L
Anti-bacterial activity (MIC), strain ECO+ 15-1 [5]: 16 mg/L
Anti-bacterial activity (MIC), strain ECO+ 15-2 [5]: 32 mg/L
Anti-bacterial activity (MIC), strain ECO+ 15-3 [5]: 16 mg/L
Anti-bacterial activity (MIC), strain ECO+ 15-4 [5]: 16 mg/L
Anti-bacterial activity (MIC), strain ECO− 15-1 [5]: 16 mg/L
Anti-bacterial activity (MIC), strain ECO− 15-2 [5]: 16 mg/L
Anti-bacterial activity (MIC), strain ECO− 15-3 [5]: 32 mg/L
Anti-bacterial activity (MIC), strain ECO− 15-4 [5]: 16 mg/L
Anti-bacterial activity (MIC), strain MRSA 15-1 [6]: 0.125 mg/L
Anti-bacterial activity (MIC), strain MRSA 15-2 [6]: 0.25 mg/L
Anti-bacterial activity (MIC), strain MRSA 15-3 [6]: 0.125 mg/L
Anti-bacterial activity (MIC), strain MRSA 15-4 [6]: 0.25 mg/L
Anti-bacterial activity (MIC), strain MSSE 15-3 ([7]; clinical isolate MSSE 15-3): 0.125 mg/L
Anti-bacterial activity (MIC), strain MSSE 15-4 [7]: 0.25 mg/L
Anti-bacterial activity (MIC), strain MSSE 15-5 [7]: 0.25 mg/L
Anti-bacterial activity (MIC), strain MSSE 15-6 [7]: 0.125 mg/L
Anti-bacterial activity (MIC), strain SPN 16-2 [8]: 0.5 mg/L
Anti-bacterial activity (MIC), strain SPN 16-4 [8]: 0.5 mg/L
Anti-bacterial activity (MIC), strain EFA 15-1 [9]: > 32 mg/L
Anti-bacterial activity (MIC), strain EFA 15-2 [9]: > 32 mg/L
Anti-bacterial activity (MIC), strain EFA 15-3 [9]: > 32 mg/L
Anti-bacterial activity (MIC), strain EFA 15-4 [9]: > 32 mg/L
Anti-bacterial activity (MIC), strain EFA 15-5 [9]: > 32 mg/L
Anti-bacterial activity (MIC), strain EFA 15-6 [9]: > 32 mg/L
Anti-bacterial activity (MIC), strain EFA 15-9 [9]: 4 mg/L
inhibition at 30 µM ([10]; Homo sapiens, HCT-116, 72 h, read-out: HCT116 inhibition rate/%): > 50%
HCT116 inhibition rate/% [10]: 68%
Inhibition of proliferation, Liver cancer BEL-7402 [11]: 74%
inhibition at 30 µM [12]: > 50%
Inhibition of proliferation, Lung cancer A549 [12]: 63%
inhibition at 30 µM ([13]; Homo sapiens, MGC-803, 72 h): > 50%
Inhibition of proliferation, Gastric cancer MGC-803 [13]: 58%

Cc1cnc(NC(=O)[C@@H]2CC3(CC3)CN2C(=O)[C@@H](CC(=O)NO)CC2CCCC2)s1 [Example 65]
Anti-bacterial activity (MIC), strain MSSA 15-3 [1]: 0.125 mg/L
Anti-bacterial activity (MIC), strain MSSA 15-4 [1]: 0.015 mg/L
Anti-bacterial activity (MIC), strain MSSA 15-5 [1]: 0.015 mg/L
Anti-bacterial activity (MIC), strain MSSA 15-6 [1]: 16 mg/L
Anti-bacterial activity (MIC), strain MRSE 15-1 [2]: 0.015 mg/L
Anti-bacterial activity (MIC), strain MRSE 15-2 [2]: 0.125 mg/L
Anti-bacterial activity (MIC), strain MRSE 15-3 [2]: 0.125 mg/L
Anti-bacterial activity (MIC), strain MRSE 15-7 [2]: 0.125 mg/L
Anti-bacterial activity (MIC), strain EFM 15-1 [3]: > 32 mg/L
Anti-bacterial activity (MIC), strain EFM 15-2 [3]: > 32 mg/L
Anti-bacterial activity (MIC), strain EFM 15-3 [3]: > 32 mg/L
Anti-bacterial activity (MIC), strain EFM 15-4 [3]: 0.25 mg/L
Anti-bacterial activity (MIC), strain EFM 15-5 [3]: 0.125 mg/L
Anti-bacterial activity (MIC), strain EFM 15-6 [3]: 1 mg/L
Anti-bacterial activity (MIC), strain BCA 14-1 [4]: 0.5 mg/L
Anti-bacterial activity (MIC), strain BCA 14-4 [4]: 0.5 mg/L
Anti-bacterial activity (MIC), strain BCA 14-5 [4]: 0.125 mg/L
Anti-bacterial activity (MIC), strain BCA 14-6 [4]: 0.125 mg/L
Anti-bacterial activity (MIC), strain BCA 14-7 [4]: 0.5 mg/L
Anti-bacterial activity (MIC), strain BCA 14-8 [4]: 0.5 mg/L
Anti-bacterial activity (MIC), strain BCA 14-10 [4]: 0.125 mg/L
Anti-bacterial activity (MIC), strain ECO+ 15-1 [5]: 8 mg/L
Anti-bacterial activity (MIC), strain ECO+ 15-2 [5]: 8 mg/L
Anti-bacterial activity (MIC), strain ECO+ 15-3 [5]: 16 mg/L
Anti-bacterial activity (MIC), strain ECO+ 15-4 [5]: 16 mg/L
Anti-bacterial activity (MIC), strain ECO− 15-1 [5]: 8 mg/L
Anti-bacterial activity (MIC), strain ECO− 15-2 [5]: 16 mg/L
Anti-bacterial activity (MIC), strain ECO− 15-3 [5]: 16 mg/L
Anti-bacterial activity (MIC), strain ECO− 15-4 [5]: 8 mg/L
Anti-bacterial activity (MIC), strain MRSA 15-1 [6]: 0.06 mg/L
Anti-bacterial activity (MIC), strain MRSA 15-2 [6]: 0.125 mg/L
Anti-bacterial activity (MIC), strain MRSA 15-3 [6]: 0.06 mg/L
Anti-bacterial activity (MIC), strain MRSA 15-4 [6]: 0.125 mg/L
Anti-bacterial activity (MIC), strain MSSE 15-4 [7]: 0.125 mg/L
Anti-bacterial activity (MIC), strain MSSE 15-5 [7]: 0.06 mg/L
Anti-bacterial activity (MIC), strain MSSE 15-6 [7]: 0.015 mg/L
Anti-bacterial activity (MIC), strain SPN 16-2 [8]: 0.125 mg/L
Anti-bacterial activity (MIC), strain SPN 16-4 [8]: 0.06 mg/L
Anti-bacterial activity (MIC), strain EFA 15-1 [9]: 32 mg/L
Anti-bacterial activity (MIC), strain EFA 15-2 [9]: 32 mg/L
Anti-bacterial activity (MIC), strain EFA 15-3 [9]: 32 mg/L
Anti-bacterial activity (MIC), strain EFA 15-4 [9]: 32 mg/L
Anti-bacterial activity (MIC), strain EFA 15-5 [9]: 32 mg/L
Anti-bacterial activity (MIC), strain EFA 15-6 [9]: > 32 mg/L
Anti-bacterial activity (MIC), strain EFA 15-9 [9]: 4 mg/L
HCT116 inhibition rate/% [10]: 83%
Inhibition of proliferation, Liver cancer BEL-7402 [11]: 81%
inhibition at 30 µM [12]: > 50%
Inhibition of proliferation, Lung cancer A549 [12]: 67%
Inhibition of proliferation, Gastric cancer MGC-803 [13]: 72%

From patent US10738028B2, “Spiro three-membered ring, spiro five-membered ring peptide deformylase inhibitor and use thereof in antibacteria and anti-tumor” (priority 2016, dated 2020)
